Patent publication US7541141B2, “Method of using estrogen-related receptor alpha (ERRα) status to determine prognosis, treatment strategy and predisposition to breast cancer, and method of using ERRα as a therapeutic target for the treatment of breast cancer” (Wisconsin Alumni Research Foundation, priority 1997, dated 2009)

T1: ERRα1 (Homo sapiens, UniProt P11474)
T1 construct: expressed in transfected cells; host or cells: COS cells (whole-cell extract)
T1 sequence (P11474 1-423): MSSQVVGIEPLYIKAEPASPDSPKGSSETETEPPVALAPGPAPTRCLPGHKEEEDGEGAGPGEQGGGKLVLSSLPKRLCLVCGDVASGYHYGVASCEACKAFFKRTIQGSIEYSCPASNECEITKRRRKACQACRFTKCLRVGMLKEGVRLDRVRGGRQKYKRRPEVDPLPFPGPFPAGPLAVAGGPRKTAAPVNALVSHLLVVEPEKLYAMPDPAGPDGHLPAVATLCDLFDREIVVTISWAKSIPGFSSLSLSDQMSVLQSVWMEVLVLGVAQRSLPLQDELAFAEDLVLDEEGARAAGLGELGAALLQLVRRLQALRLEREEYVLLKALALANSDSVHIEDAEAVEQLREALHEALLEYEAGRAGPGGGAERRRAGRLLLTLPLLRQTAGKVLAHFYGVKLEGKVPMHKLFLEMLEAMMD


target: T1, ERRα1; experiment: Quantitative competition EMSA of unlabeled oligodeoxynucleotides against 32P-labeled reference consensus ERRE; type: binding; settings: relative to reference consensus ERRE; reciprocal of fold molar excess of competitor reducing shifted probe by 50%; COS whole cell extracts
Procedure: Quantitative gel-mobility-shift assays: DNA binding was assayed in 20 μl of a buffer containing 10 mM HEPES (pH 7.5), 2.5 mM MgCl2, 50 μM EDTA, 1 mM dithiothreitol, 6% glycerol and 100 ng/μl of poly(dI-dC)·poly(dI-dC). Competition binding assays included unlabeled competitor oligonucleotide as well. […] Supershift assays contained 1 μl of a 1:10 dilution of whole antiserum. All components were mixed prior to the addition of protein. The final mixtures were incubated on ice for 15 minutes, followed by 25° C. for 15 minutes prior to separation by electrophoresis at 4° C. for 2 hours through a non-denaturing 4% polyacrylamide gel at 160 volts. Quantitation was performed with a PhosphorImager (Molecular Dynamics). The relative affinities of different sequences for binding by the protein were determined from the moles of unlabeled competitor oligonucleotide needed to reduce the fraction of probe shifted to 50%.
Knowing which genes are transcriptionally modulated by ERR may help to clarify ERR's potential role in breast cancer. To identify potential ERR-responsive genes, we examined the transcriptional regulatory regions of genes known to be involved in breast cancer for sequences capable of being bound by ERR. […] This sequence is a half-site of the consensus palindromic estrogen response element (ERE, 5′-AGGTCAnnnTGACCT (SEQ ID NO:32)) with a 3-base pair extension at the 5′ end. Searching sequence databases (the EPD Eukaryotic Promoter Database available on line from the Swiss Institute of Bioinformatics (17), and Genbank available on line from the National Center for Biotechnology Information, National Library of Medicine, National Institute of Health) facilitated the location of this consensus and similar non-consensus ERREs in human gene promoters, which were selected and tested experimentally for whether they contained authentic ERR-binding sites. Using quantitative competitive EMSAs performed similarly as described in FIG. 5 of Example 1, we identified many authentic ERR-binding sites that exist in the promoters of important genes implicated in breast cancer. These sequences and ERR's affinity for binding these sites relative to a reference consensus ERRE are shown in Table 3 (Location, distance of the ERRE sequence from the gene's transcriptional start site; Ref, reference of the gene's prognostic status or relevance to human breast cancer).

| Molecule | Relative binding affinity (RBA) of ERRα1 for DNA sequence |
| --- | --- |
| ATGTTTGGTATGAAAAGGTCACATTTTATATTC (chemistry not given here) [ERα] | 0.11 |
| CTCCCATCTCACTTAAGGTCAAAGCCAGGGTCC (chemistry not given here) [elk1] | 0.22 |
| TGGCATATTGGGTGAAGGTCAAGGGAGTGGCTT (chemistry not given here) [Cathepsin D] | 0.49 |
| CAAATAATGGGCTGAAGGTGAACTATCTTTACT (chemistry not given here) [EGF] | 0.14 |
| GTAGGACCTGGATTAAGGTCAGGTTGGAGGAGA (chemistry not given here) [pS2 site 2] | 0.12 |
| CCTGAGACTCTACCAAGGTCAGAAATGCTGCAA (chemistry not given here) [aromatase] | 0.17 |
| TCGAGAGCAGTGGCGATTTGTCAAGGTCACACAGTGAG (DNA, backbone not given here) [Reference ERRE, reference compound] | 1.00 |
| TGTCCATTTTCTTCTAGGTCAACCCCAATGGTA (chemistry not given here) [Pr1 site 1] | 0.06 |
| GGTGGACGCTGCTGAAGGTGAGCGAGACCCCGG (chemistry not given here) [IGF2 site 3] | 0.06 |
| GTAATTGCTGTACGAAGGTCAGAATCGCTACCT (chemistry not given here) [BRCA1] | 0.17 |
| TCCTAAGGACTGTCAAGGTCATCAAATACAAGG (chemistry not given here) [PgR site 3] | 1.45 |
| CTGTCGGCAGGAACAAGGTCACCCCTTGGCGTT (chemistry not given here) [IGF2 site 2] | 0.25 |
| GCGAGGAAAGCGTGAAGGTGATTTCAGTTAATT (chemistry not given here) [cyclin D1] | 0.07 |
| TCCCTTCCCCCTGCAAGGTCACGGTGGCCACCC (chemistry not given here) [pS2 site 1] | 0.49 |
| AAAGGAACTTTCCCAAGGTCACAGAGCTGAGCT (chemistry not given here) [ErbB2] | 1.01 |
| AGAACATCCCTTTTAAGGTCAGAACAAAGGTAT (chemistry not given here) [BRCA2] | 0.08 |
| AAAATTGTTTTGTCTAGGTCATTTGCATTTTCA (chemistry not given here) [PgR site 1] | 0.14 |
| GGGAGTTCAGGGTAAAGGTCACGGGGCCGGGGC (chemistry not given here) [hMDM2] | 0.35 |
| GCTCCGGCTCGCTGAAGGTCACAGCCGAGGCGA (chemistry not given here) [IGF1R] | 0.36 |
| CAAATTTGAAACTAAAGGTCACAGGCTGCTTTA (chemistry not given here) [Pr1 site 2] | 0.33 |
| CCTCAGAGTGGCTCAGGGTCAGAGAAGGTAGAG (chemistry not given here) [Pr1 site 3] | 0.07 |
| GGTGCTCCCACTTAGAGGTCACGCGCGGCGTCG (chemistry not given here) [ERβ] | 0.54 |
| TCCTTGCTAAACCCAAGGTCATAAATCTTTTCT (chemistry not given here) [PgR site 2] | 0.91 |

tested on: ERE-dependent transcription in MCF-7 cells; experiment: p3xERE-TK-luc luciferase reporter, transient transfection; type: cell-based, human; settings: 0.12 or 0.25 μg expression plasmid, whole FBS, 48 h
Procedure: Transient Transfections and Luciferase Assays: To assess the role ERRα plays in regulating transcription of an ERE-containing promoter, MCF-7 or HeLa cells grown in 12-well tissue culture plates were co-transfected in parallel with 0.5 μg of pTK-luc versus p3xERE-TK-luc along with the indicated amounts of the empty cloning vector pcDNA3.1, the ERRα1 expression plasmid pcDNA3.1-hERRα1, or mutant variants thereof. Transfections were performed with the aid of the TransIT LT1 transfection reagent (PanVera, Madison, Wis.) as previously described (35). To examine the effects of ER ligands, cells were maintained in stripped medium for 48 h before transfection and the addition of 17β-estradiol (E2) (Sigma) or the pure anti-estrogen ICI-182,780 (Astra Zeneca, London, UK) dissolved in ethanol and diluted in medium to obtain the indicated concentrations. Cells were harvested 48 h post-transfection, and lysates were assayed for luciferase activity normalized to protein concentration as previously described (36).
ERRα Represses Transcription in MCF-7 Cells: Because ERRα can interfere with the binding of ERα to this ERE, might it affect estrogen-responsive transcription? To answer this question, we co-transfected ERα-positive mammary MCF-7 cells in parallel with p3xERE-TK-luc, a reporter plasmid containing three tandem copies of this ERE (FIG. 14A) or the ERE-negative control plasmid, pTK-luc, together with 0.12 or 0.25 μg of the ERRα1 expression plasmid, pcDNA3.1-hERRα1, or the empty parental expression plasmid, pcDNA3.1. After incubation for 48 h in medium containing whole FBS, the cells were harvested and assayed for luciferase activity. The presence of the EREs conferred an about 150-fold increase in transcriptional activity above the level observed in the cells transfected with the ERE-negative reporter plasmid (FIG. 14B). […] Thus, ERRα inhibits the estrogen-responsive activation of transcription from this ERE-containing promoter in this ER-positive MCF-7 cell line.
ERRα Modulates Estrogen-responsiveness in MCF-7 Cells: To directly examine the effect of ERRα on the response to estrogen, MCF-7 cells were cultured in medium containing estrogen-free charcoal-stripped FBS and cotransfected as described above but in the absence or presence of E2. […] Once again, overexpression of ERRα repressed ERE-dependent transcription approximately 3-fold while having little if any effect on transcription of the control reporter (FIG. 15A).

| Molecule | Repression of ERE-dependent transcription by overexpression |
| --- | --- |
| ERRα11-173: carboxyl-terminal-deleted ERRα1 variant (residues 1-173) retaining A/B and DNA binding domains, lacking E/F domains (protein) MSSQVVGIEPLYIKAEPASPDSPKGSSETETEPPVALAPGPAPTRCLPGHKEEEDGEGAGPGEQGGGKLVLSSLPKRLCLVCGDVASGYHYGVASCEACKAFFKRTIQGSIEYSCPASNECEITKRRRKACQACRFTKCLRVGMLKEGVRLDRVRGGRQKYKRRPEVDPLPFP | failed to repress |
| ERRα176-423: amino-terminal-deleted ERRα1 variant (residues 76-423) lacking the A/B domain (protein) MKRLCLVCGDVASGYHYGVASCEACKAFFKRTIQGSIEYSCPASNECEITKRRRKACQACRFTKCLRVGMLKEGVRLDRVRGGRQKYKRRPEVDPLPFPGPFPAGPLAVAGGPRKTAAPVNALVSHLLVVEPEKLYAMPDPAGPDGHLPAVATLCDLFDREIVVTISWAKSIPGFSSLSLSDQMSVLQSVWMEVLVLGVAQRSLPLQDELAFAEDLVLDEEGARAAGLGELGAALLQLVRRLQALRLEREEYVLLKALALANSDSVHIEDAEAVEQLREALHEALLEYEAGRAGPGGGAERRRAGRLLLTLPLLRQTAGKVLAHFYGVKLEGKVPMHKLFLEMLEAMMD | 2-3 fold |

same assay, conditions: 1×10^−8 M E2, charcoal-stripped FBS

| Molecule | Additional stimulation of ERE-dependent transcription over level with 10^−10 M E2 [fold] |
| --- | --- |
| C[C@]12CC[C@@H]3c4ccc(O)cc4CC[C@H]3[C@@H]1CC[C@@H]2O [E2, 17β-estradiol, reference compound] | 3 |

same assay, conditions: 1×10^−8 M E2, charcoal-stripped FBS, 48 h

| Molecule | ERE-dependent transcription above activity without exogenous E2 |
| --- | --- |
| C[C@]12CC[C@@H]3c4ccc(O)cc4CC[C@H]3[C@@H]1CC[C@@H]2O [E2, 17β-estradiol, reference compound] | approximately 30 fold |

same assay, conditions: 1×10^−10 M E2, charcoal-stripped FBS, 48 h

| Molecule | Induction of transcriptional activity of ERE-containing reporter above level without exogenous E2 |
| --- | --- |
| C[C@]12CC[C@@H]3c4ccc(O)cc4CC[C@H]3[C@@H]1CC[C@@H]2O [E2, 17β-estradiol, reference compound] | approximately 10 fold |
